From patent publication US20080045500A1, “Nerve Regeneration Stimulator” (priority 2004, published 2008)
“Also recorded” adds a separate entry of the source.

Tests used:
[1] = tested on: neural stem cells (BrdU positive cells) in hippocampal dentate gyrus; assay: Nerve regeneration in rat hippocampal dentate gyrus: BrdU labelling, immunohistochemical count and GCL volume; assay type: in vivo; settings: for GCL volume / Number of BrdU positive cells per hippocampus: SD rats, mean ± standard error, n=11; for Number of BrdU positive cells per hippocampus: vehicle 5490 ± 179, * p<0.05
Experimental: SD male SPF rats (6-week-old at the beginning of the experiments) purchased from Japan SLC, Inc. were bred under the same conditions as the mice in Example 2. Animals were subjected to experiments after acclimating for 5 days or longer following purchase.
BrdU (Sigma) for labeling neural stem cells was dissolved in PBS containing 0.014N HCl at a concentration of 10 mg/mL. BrdU was intraperitoneally administered at a dose of 50 mg/kg for three times (every 4 hours).
Injectable distilled water was orally administered at the same volume to animals in the vehicle control group.
The removed brain was sliced into sections as described in Example 2 for use in immunohistochemical studies.
Immunostaining of the brain tissues were carried out as described in Example 2.
For quantitation, four hippocampal sections (thickness of 40 μm, intervals of sections being 400 μm, four sections between −3.6 mm to −4.8 mm from bregma) were used for each individual. BrdU positive cells were counted in the same manner as Example 2. The GCL volume in each hippocampal section and the total number of BrdU positive cells in each hippocampal dentate gyrus were also determined as described in Example 2.
In Table 2, “*” indicates p<0.05, in comparison to the vehicle control group.

[2] = tested on: neural stem cells (BrdU positive cells) in hippocampal dentate gyrus; assay: Nerve regeneration in mouse hippocampal dentate gyrus: BrdU labelling, immunohistochemical count and GCL volume; assay type: in vivo
Experimental: C57BL/6 male SPF mice (8-week-old at the beginning of the experiments) purchased from Japan SLC, Inc. were used. Animals were subjected to experiments after acclimating in a breeding room under control at a temperature of 23±1° C. and illumination of 12 hours (7:00 to 19:00) for 5 days or longer. During breeding, animals had free access to solid food MF (Oriental Yeast Co., Ltd.) and water (tap water).
BrdU (Sigma) for labeling neural stem cells was used by dissolving in a phosphate buffer solution (PBS: Sigma) containing 0.007N HCl at a concentration of 5 mg/mL (Yoshimura et al., PNAS, 98, 5874-5879, 2001, Yoshimura et al., J. Clin. Invest., 112, 1202-1210, 2003). BrdU was intraperitoneally administered at a dose of 50 mg/kg (0.1 ml BrdU solution/10 g weight) for three times (every 4 hours).
Injectable distilled water was orally administered to animals of the vehicle control group.
The removed brain was sliced into coronal sections in a frozen state with a thickness of 40 μm using a sliding microtome (Leica, Model SM2000R, Nussloch). The sliced brain tissues were successively placed in 10 wells of a culture plate with a PBS solution containing sodium azide such that 10 sections were placed per well.
Immunostaining of the brain tissues were carried out by flotation (Yoshimura et al., PNAS, 98, 5874-5879, 2001, Yoshimura et al., J. Clin. Invest., 112, 1202-1210, 2003). Peroxidase method (ABC system, Vector Laboratories Inc.) was used for immunohistochemical detection of BrdU (Yoshimura et al., PNAS, 98, 5874-5879, 2001, Yoshimura et al., J. Clin. Invest., 112, 1202-1210, 2003). As a primary antibody to BrdU, rat anti-BrdU antibody (400-fold-diluted, Accurate Chemical & Scientific Corporation) was used. As a secondary antibody, rabbit IgG biotinylated antibody (200-fold-diluted, Vector Laboratories Inc.) was used
For quantitation, four hippocampal sections (intervals of sections being 400 μm, four sections between −1.4 mm to −2.6 mm from bregma) were used for each individual. All of the BrdU positive cells present in a subgranular zone (SGZ) and a granule cell layer (GCL) of the hippocampal dentate gyrus were determined. SGZ was defined as an area with a depth of 20 μm (a size corresponding to two cells) just below the GCL (on the side of hylus). […] The GCL area in each hippocampal section was determined as a cresyl violet positive GCL area using an image analyzing software (NIH, image ver. 1.60).
A volume of GCL (GCLV) was determined as a GCL volume in left hemisphere between −1.4 mm to −2.6 mm from bregma (Cavalieri technique). The number of BrdU positive cells in GCLV was calculated by multiplying the number of BrdU positive cells in the four hippocampal sections by 10. […]
All of the quantitative values are indicated in mean ±standard error (n=8 for each group).

[3] = tested on: rat neural progenitor cells; assay: Intracellular calcium concentration of fetal rat neural progenitor cells (Fluo-3); assay type: cell-based
Experimental: Cerebrums were isolated from fetuses obtained from 14.5 days pregnant SD female rats (Japan SLC, Inc.). Cells were dispersed by pipetting the tissue in cold L-15 medium. These cells were cultured in a suspension containing 20 ng/ml human basic fibroblast growth factor (bFGF) in serum-free D-MEM/F-12 medium (supplemented with B-27, N2 (both from Invitrogen) and gentamicin beforehand). The rat neural progenitor cells are known to form a neurosphere in this medium. After 5 to 7 days, the neurosphere was collected and pipetted to isolate the rat neural progenitor cells, followed by passage culture using the medium described above.
The neural progenitor cells were isolated from the neurosphere that was collected a day before the experiment and suspended in the bFGF-free medium otherwise same as described above. After the number of cells was counted, 50,000 cells each were suspended in 100 μL of the medium described above and dispensed into a 96-flat bottom culture plate. Intracellular Ca^++ concentration was determined using a commercially available kit (Calcium Kit-Fluo-3, Dojindo laboratories) according to the attached instruction. To some of the wells, atropine (muscarine receptor antagonist) was added to 25 μmol/L and cultured at 37° C. for 30 minutes beforehand. […]

[4] = tested on: hippocampus of PTSD patients; settings: administration to PTSD patients, reported by Bremner 2002; cited from earlier work
[5] = 0.5 mg/kg orally once a day for 28 days
[6] = 2 mg/kg orally once a day for 28 days

COc1cc2c(cc1OC)C(=O)C(CC1CCN(Cc3ccccc3)CC1)C2.Cl (stereo not drawn) [Donepezil, 1-benzyl-4-[(5,6-dimethoxy-1-indanone)-2-yl]methylpiperidine hydrochloride]
GCL volume [1, 5]: 1.27 ± 0.04 mm^3
Number of BrdU positive cells per hippocampus [1, 5]: 6880 ± 436*
GCL volume [1, 6]: 1.35 ± 0.04 mm^3
Number of BrdU positive cells per hippocampus [1, 6]: 6694 ± 357*
Influence on the volume of rat hippocampal nerve cell layer (GCL), in words ([1]; rats, 0.5 and 2 mg/kg orally, 28 days): no influence
Number of BrdU positive cells per hippocampus compared to vehicle group (in words) ([1]; rats, each donepezil group (0.5 and 2 mg/kg orally, 28 days), statistically significant): higher
Number of BrdU positive cells per hippocampus ([2]; C57BL/6 mice, 1 mg/kg orally once a day for 14 days, mean ± standard error, n=8, vehicle 1091 ± 56, * p<0.05): 1528 ± 137*
Effect on the volume of hippocampal nerve cell layer (GCL), in words ([2]; mice, 1 mg/kg orally, 14 days): no effect
Number of BrdU positive cells compared to vehicle group (in words) ([2]; mice, 1 mg/kg orally, 14 days, statistically significant, hydrochloride, 1 mg/kg): higher; also recorded: increased

CN1[C@@H]2CC[C@H]1C[C@@H](OC(=O)C(CO)c1ccccc1)C2 (stereo partly drawn) [atropine]
Antagonism of the acetylcholine/carbachol induced intracellular Ca++ increase ([3]; 25 μmol/L pretreatment for 30 minutes): completely antagonized; also recorded: completely inhibited

C[N+](C)(C)CCOC(N)=O [carbachol]
Change of intracellular Ca++ concentration on stimulation ([3]; 25 μmol/L agonist, Fluo-3 fluorescence): increases

Fc1ccc([C@@H]2CCNC[C@H]2COc2ccc3c(c2)OCO3)cc1 [paroxetine]
Volume of hippocampus of PTSD patients [4]: increase
